The structures appear in SMILES notation.

Assay [1] concerns FMLP-stimulated human neutrophils (superoxide generation). Nature of the assay: Human neutrophil superoxide generation, FMLP-stimulated, cytochrome C reduction. The following applies: for Effect on FMLP Induced Superoxide: stimulated (% > control) / activation at 50 µM: % above control; for inhibition at 50 µM / activation at 50 µM: Homo sapiens; for inhibition at 50 µM: inhibited at 50 μM, read-out: Effect on FMLP Induced Superoxide: inhibited (% < control); for activation at 50 µM: stimulated at 50 μM, read-out: Effect on FMLP Induced Superoxide: stimulated (% > control). It counts as cell-based. Here is the method:
The compounds of the invention are evaluated with respect to superoxide modulating activity according to the following assay procedure:
Human neutrophil superoxide generation:
Superoxide generation by formyl-methionyl-leucyl-phenylalanine (FMLP)-stimulated neutrophils was quantitated by the reduction of cytochrome C (Badwey, J. A., Curnutte, J. T. and Karnovsky, M. L., cis-Polyunsaturated fatty acids induce high levels of superoxide production by human neutrophils. J. Biol. Chem. 256: 12640-12643, 1981.) To 5 million neutrophils in 2.85 ml of Krebs-Ringer phosphate buffer, pH 7.2, 50 ul of inhibitor (in 10% DMSO/buffer), and 50 ul ferricytochrome C (5 mM, stock) were added and preincubated for 3 minutes at 37° C. Absorption measurements at 550 nm were recorded at start of preincubation. Fifty ul FMLP (6 μM, stock) was added to initiate reaction. A plateau was reached within 3 minutes and this reading - initial reading (before addition of FMLP) was used to calculate nanomoles of superoxide generated based on a molar extinction coefficient of 2.1×10^4 cm^-1 mole^-1.
Isolation of human neutrophils:
Human neutrophils were isolated from freshly drawn blood of healthy donors. Two ml of 5% dextran (MW 200,000-300,000) in saline was added to 10 ml aliquots of blood, mixed and placed upright for 45 min. at 37° C. Approx. 8-10 ml of the plasma-white cell suspension from the dextran sedimentation was layered on 3 ml of Ficol-paque in a 15 ml tube and centrifuged at 400 g for 30 min. The supernate, containing plasma and platelets, was discarded by aspiration, and the pellet, containing predominantly neutrophils, was resuspended in 1 ml saline. The suspension was transferred to a clean tube, and pooled with other aliquots of blood treated similarly. The pooled suspension was centrifuged at 350 g for 5 min. and supernate discarded. The pellet was resuspended in 5 ml of 0.05% NaCl with a plastic Pasteur pipette for 25 seconds to lyse contaminating red cells, then 5 ml of 1.75% NaCl added to regain isotonicity. The red cell lysing procedure was repeated, the cells suspended in appropriate buffer (depending on assay) and counted.

Another assay addresses T1, 5-lipoxygenase (Rattus norvegicus, UniProt P12527).
T1 construct: supernatant fraction of Rat Basophilic Leukemia Cell Homogenate (RBL-1) serves as a 5-lipoxygenase enzyme source; endogenous in cells; host or cells: RBL-1 (rat basophilic leukemia) cell homogenate, 100,000 x g supernatant
T1 sequence (P12527 1-673): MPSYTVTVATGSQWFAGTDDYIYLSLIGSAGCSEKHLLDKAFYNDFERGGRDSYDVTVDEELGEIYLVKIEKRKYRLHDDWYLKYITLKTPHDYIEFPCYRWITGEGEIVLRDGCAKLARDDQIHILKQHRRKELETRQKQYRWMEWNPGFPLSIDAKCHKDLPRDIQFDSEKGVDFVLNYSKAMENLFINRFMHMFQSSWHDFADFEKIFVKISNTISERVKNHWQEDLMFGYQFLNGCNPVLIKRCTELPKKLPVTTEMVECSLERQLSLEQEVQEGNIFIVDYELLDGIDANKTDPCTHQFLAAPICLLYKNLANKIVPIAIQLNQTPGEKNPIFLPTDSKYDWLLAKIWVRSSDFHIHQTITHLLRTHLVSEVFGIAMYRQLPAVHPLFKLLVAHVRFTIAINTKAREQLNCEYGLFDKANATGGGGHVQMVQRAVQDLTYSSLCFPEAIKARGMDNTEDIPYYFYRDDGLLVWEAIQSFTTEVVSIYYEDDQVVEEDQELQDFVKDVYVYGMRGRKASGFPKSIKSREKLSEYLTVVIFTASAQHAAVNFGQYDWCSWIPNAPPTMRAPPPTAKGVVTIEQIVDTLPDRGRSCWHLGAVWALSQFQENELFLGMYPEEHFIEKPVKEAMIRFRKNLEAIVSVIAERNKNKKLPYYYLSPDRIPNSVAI
The assay can be described thus: Inhibition of 5-lipoxygenase, in vitro (5-HETE synthesis, RBL-1 100,000 x g supernatant). The assay is classed as biochemical. The following applies: RBL-1 homogenate supernatant. Here is the method: The compounds of the invention are evaluated with respect to 5-lipoxygenaseinhibition according to the following assay procedure.
Inhibition of 5-lipoxygenase, in vitro: anti-inflammatory, anti-allergy activities.
The 100,000 x g supernatant fraction of Rat Basophilic Leukemia Cell Homogenate (RBL-1) serves as a 5-lipoxygenase enzyme source. The enzyme is incubated with [1-^14 C)-arachidonic acid and Ca++ in the presence and absence of test compound. The product of 5-lipoxygenase, 5-hydroxyeicosatetraenoic acid (5-HETE), is separated by thin-layer chromatography and measured by radioactivity. A compound inhibiting 5-HETE synthesis by 30% or more is considered active at that concentration.

For assay [2] the following is noted: versus histamine; cited from earlier work.

On to `C[C@H](Sc1cc(C(C)(C)C)c(O)c(C(C)(C)C)c1)[C@@H](C)OCC(=O)N1CCN(Cc2ccccc2)CC1` (relative stereo) [Example 19, (±)1-[2-[2S*-[[3,5-bis(1,1-dimethylethyl)-4-hydroxyphenyl]thio]-1R*-methylpropoxy]-1-oxoethyl]-4-(phenylmethyl)piperazine], for which the “Effect on FMLP Induced Superoxide: stimulated (% > control)” value (“Effect … (% > control)” for short) in assay [1] (stimulated at 1-50 μM) was 33%. This compound also showed an IC50 against 5-lipoxygenase of 460 nM.

Consider `CN(CCc1ccccn1)C(=O)CCSCCSc1cc(C(C)(C)C)c(O)c(C(C)(C)C)c1` [Example 16, 3-[[2-[[3,5-bis(1,1-dimethylethyl)-4-hydroxyphenyl]thio]ethyl]thio]-N-methyl-N-[2-(2-pyridinyl)ethyl]propanamide], for which the inhibition at 50 µM in assay [1] (Neutrophil, % below control) is 13%. Besides, the “Effect … (% > control)” value in assay [1] (stimulated at 1-50 μM) is listed as 146%. Further, the IC50 against 5-lipoxygenase came out at 160 nM.

On to `CC(C)(C)c1cc(SCCSCC(=O)NCc2ccccn2)cc(C(C)(C)C)c1O` [Example 13, 2-[[2-[3,5-bis(1,1-dimethylethyl)-4-hydroxyphenyl]thiolethyl]thio]-N-(2-pyridinylmethyl)acetamide], for which the “Effect … (% > control)” value in assay [1] (stimulated at 1-50 μM) turned out to be 171%. For the same compound, the IC50 against 5-lipoxygenase was 160 nM.

Take `C[C@H](Sc1cc(C(C)(C)C)c(O)c(C(C)(C)C)c1)[C@@H](C)OCC(=O)N(C)CCc1ccccn1` (relative stereo) [Example 14, (±)2S*-[2-[[3,5-bis(1,1-dimethylethyl)-4-hydroxyphenyl]thio]-1R*-methylpropoxy]-N-methyl-N-[2-(2-pyridinyl)ethyl]acetamide]: the “Effect on FMLP Induced Superoxide: inhibited (% < control)” value in assay [1] (inhibited at 25-50 μM, % below control) worked out at 57%. Moreover, the “Effect … (% > control)” value in assay [1] (stimulated at 1-10 μM) was determined as 171%. The IC50 on 5-lipoxygenase came to 220 nM.

Turning to `CCCCC/C=C\C\C=C/C=C/C=C/[C@@H](SC[C@H](NC(=O)CC[C@H](N)C(=O)O)C(=O)NCC(=O)O)[C@@H](O)CCCC(=O)O` [LTC4], the “potency in causing long lasting bronchoconstricting effects relative to histamine” value in assay [2] was “at least 100 times”.

For `C[C@H](Sc1cc(C(C)(C)C)c(O)c(C(C)(C)C)c1)[C@@H](C)SCC(=O)NCc1ccncc1` (relative stereo) [Example 17, (±)2S*-[[[2-[[3,5-bis(1,1-dimethylethyl)-4-hydroxyphenyl]thio]-1R*-methylpropyl]thio]-N-(4-pyridinylmethyl)acetamide], in assay [1] (stimulated at 1-50 μM), the “Effect … (% > control)” value is recorded as 60%. This compound yielded an IC50 at 5-lipoxygenase of 200 nM.

With `CC(=O)c1ccc(N2CCN(C(=O)CS[C@H](C)[C@H](C)Sc3cc(C(C)(C)C)c(O)c(C(C)(C)C)c3)CC2)cc1` (relative stereo) [Example 22, (±) 1-(4-acetylphenyl)-4-[2-[[2S*-[[3,5-bis(1,1-dimethylethyl)-4-hydroxyphenyl]thio]-1R*-methylpropyl]thio]-1-oxoethyl]piperazine], the activation at 50 µM in assay [1] (Neutrophil) amounted to 17%. On 5-lipoxygenase, this compound returned an IC50 of 170 nM.

Consider `C[C@H](Sc1cc(C(C)(C)C)c(O)c(C(C)(C)C)c1)[C@@H](C)OCC(=O)O` (relative stereo) [Formula IV, reference compound], for which the “Effect on superoxide generation, in words” value in assay [1] (FMLP-stimulated human neutrophils) was “inhibited both superoxide generation and 5-lipoxygenase”. For the same compound, in assay [1] (Neutrophil, FMLP-stimulated human neutrophils, read-out: Effect on FMLP Induced Superoxide: inhibited superoxide generation, IC50), the IC50 turned out to be 11 µM.

Consider `CC(C)(C)c1cc(SCCSCC(=O)NCc2cccnc2)cc(C(C)(C)C)c1O` [Example 15, 2-[[2-[[3,5-bis (1,1-dimethylethyl)-4-hydroxyphenyl]thio]ethyl]thio]-N-(3-pyridinylmethyl)acetamide], for which the inhibition at 50 µM in assay [1] (Neutrophil, % below control) came out at 13%. For the same compound, the “Effect … (% > control)” value in assay [1] (stimulated at 1-10 μM) is 38%. On 5-lipoxygenase, this compound yielded an IC50 of 130 nM.

Regarding `CN1CCN(C(=O)CSCCSc2cc(C(C)(C)C)c(O)c(C(C)(C)C)c2)CC1` [Example 20, 1-[2-[[2-[[3,5-bis(1,1-dimethyethyl)-4-hydroxypheny]thio]ethyl]thio]-1-oxoethyl]-4-methylpiperazine], the inhibition at 50 µM in assay [1] (Neutrophil, % below control) was found to be 100%. The “Effect … (% > control)” value in assay [1] (stimulated at 1-25 μM) turned out to be 135%. In addition, the IC50 on 5-lipoxygenase came out at 400 nM.

Take `CC(C)(C)c1cc(SCCSCCC(=O)N2CCC(N3CCCCC3)CC2)cc(C(C)(C)C)c1O` [Example 21, 1-[3-[[2-[[3,5-bis(1,1-dimethylethyl)-4-hydroxyphenyl]thio]ethyl]thio]-1-oxopropyl]-4-(1-piperidinyl)piperidine]: the activation at 50 µM in assay [1] (Neutrophil) worked out at 46%. For the same compound, on 5-lipoxygenase, the IC50 is 150 nM.

(Values after patent publication US5342838A, “Phenolic thioetheramides” (G. D. Searle & Co., priority 1993, dated 1994).)
